Laboratory results: ChEMBL document CHEMBL3407338, “Synthesis and structure-activity relationship of novel 1,4-diazabicyclo[2.2.2]octane derivatives as potent antimicrobial agents” (Eur J Med Chem, 2015)

What was measured:
Assay type in all cases: functional
[1] = system: Escherichia coli; experiment: Antimicrobial activity against Escherichia coli ATCC 25922 at 1 ug/ml after 24 hrs by agar diffusion method; conditions: ATCC 25922, 24 h, read-out: DIZ
[2] = system: Candida albicans; experiment: Antimicrobial activity against Candida albicans ATCC 32354 at 1 ug/ml after 24 hrs by agar diffusion method; conditions: ATCC 32354, 24 h, read-out: DIZ
[3] = system: Pseudomonas aeruginosa; experiment: Antimicrobial activity against Pseudomonas aeruginosa ATCC 9027 at 1 ug/ml after 24 hrs by agar diffusion method; conditions: ATCC 9027, 24 h, read-out: DIZ
[4] = system: Salmonella enterica; experiment: Antimicrobial activity against Salmonella enterica ATCC 14028 at 1 ug/ml after 24 hrs by agar diffusion method; conditions: ATCC 14028, 24 h, read-out: DIZ
[5] = system: Staphylococcus aureus; experiment: Antimicrobial activity against Staphylococcus aureus ATCC 25923 at 1 ug/ml after 24 hrs by agar diffusion method; conditions: ATCC 25923, 24 h, read-out: DIZ
[6] = system: Bacillus subtilis; experiment: Antimicrobial activity against Bacillus subtilis ATCC 6633 at 1 ug/ml after 24 hrs by agar diffusion method; conditions: ATCC 6633, 24 h, read-out: DIZ
[7] = system: Staphylococcus aureus; experiment: Antimicrobial activity against 10^4 CFU/ml Staphylococcus aureus ATCC 25923 after 22 hrs by serial microdilution method; conditions: ATCC 25923, 22 h
[8] = system: Candida albicans; experiment: Antimicrobial activity against 10^7 CFU/ml Candida albicans ATCC 32354 after 22 hrs by serial microdilution method; conditions: ATCC 32354, 22 h
[9] = system: Staphylococcus aureus; experiment: Antimicrobial activity against 10^7 CFU/ml Staphylococcus aureus ATCC 25923 after 22 hrs by serial microdilution method; conditions: ATCC 25923, 22 h
[10] = system: Bacillus subtilis; experiment: Antimicrobial activity against 10^7 CFU/ml Bacillus subtilis ATCC 6633 after 22 hrs by serial microdilution method; conditions: ATCC 6633, 22 h
[11] = system: Pseudomonas aeruginosa; experiment: Antimicrobial activity against 10^4 CFU/ml Pseudomonas aeruginosa ATCC 9027 after 22 hrs by serial microdilution method; conditions: ATCC 9027, 22 h
[12] = system: Pseudomonas aeruginosa; experiment: Antimicrobial activity against 10^7 CFU/ml Pseudomonas aeruginosa ATCC 9027 after 22 hrs by serial microdilution method; conditions: ATCC 9027, 22 h
[13] = system: Salmonella enterica; experiment: Antimicrobial activity against 10^7 CFU/ml Salmonella enterica ATCC 14028 after 22 hrs by serial microdilution method; conditions: ATCC 14028, 22 h
[14] = system: Salmonella enterica; experiment: Antimicrobial activity against 10^4 CFU/ml Salmonella enterica ATCC 14028 after 22 hrs by serial microdilution method; conditions: ATCC 14028, 22 h
[15] = system: Escherichia coli; experiment: Antimicrobial activity against 10^7 CFU/ml Escherichia coli ATCC 25922 after 22 hrs by serial microdilution method; conditions: ATCC 25922, 22 h
[16] = system: Bacillus subtilis; experiment: Antimicrobial activity against 10^4 CFU/ml Bacillus subtilis ATCC 6633 after 22 hrs by serial microdilution method; conditions: ATCC 6633, 22 h
[17] = system: Candida albicans; experiment: Antimicrobial activity against 10^4 CFU/ml Candida albicans ATCC 32354 after 22 hrs by serial microdilution method; conditions: ATCC 32354, 22 h
[18] = system: Escherichia coli; experiment: Antimicrobial activity against 10^4 CFU/ml Escherichia coli ATCC 25922 after 22 hrs by serial microdilution method; conditions: ATCC 25922, 22 h

MIC [7] [µg/mL]	MIC [8] [µg/mL]	MIC [9] [µg/mL]	MIC [10] [µg/mL]	MIC [11] [µg/mL]	MIC [12] [µg/mL]	MIC [13] [µg/mL]	SMILES	zone of inhibition at 1 µg/mL [1] [mm]	zone of inhibition at 1 µg/mL [2] [mm]	zone of inhibition at 1 µg/mL [3] [mm]	zone of inhibition at 1 µg/mL [4] [mm]	zone of inhibition at 1 µg/mL [5] [mm]	zone of inhibition at 1 µg/mL [6] [mm]	MBC [7] [µg/mL]	MBC [8] [µg/mL]	MBC [9] [µg/mL]	MBC [10] [µg/mL]	MBC [11] [µg/mL]	MBC [12] [µg/mL]	MBC [13] [µg/mL]	also measured
							CC[N+]12CC[N+](CCCCC[N+]34CC[N+](CC)(CC3)CC4)(CC1)CC2	0	0	0	0	0	0								
							CCC[N+]12CC[N+](CCCCC[N+]34CC[N+](CCC)(CC3)CC4)(CC1)CC2	0	0	0	0	0	0								
							CCCCCCC[N+]12CC[N+](CCCCC[N+]34CC[N+](CCCCCCC)(CC3)CC4)(CC1)CC2	4	0	0	0	5	5								
12.5	< 1.6	50	50	25	> 100	100	CCCCCCCC[N+]12CC[N+](CCCCC[N+]34CC[N+](CCCCCCCC)(CC3)CC4)(CC1)CC2.[Br-].[Br-].[Br-].[Br-]	4	0	0	4	8	10	100	< 1.6	> 100	100	50	> 100	> 100	MBC [14]: 100 µg/mL; MIC [14]: 100 µg/mL; MBC [15]: 100 µg/mL; MIC [15]: 25 µg/mL; MBC [16]: 50 µg/mL; MIC [16]: 25 µg/mL; MBC [17]: < 1.6 µg/mL; MIC [17]: < 1.6 µg/mL; MBC [18]: 50 µg/mL; MIC [18]: 12.5 µg/mL
12.5	< 1.6	12.5	25	12.5	50	25	CCCCCCCCC[N+]12CC[N+](CCCCC[N+]34CC[N+](CCCCCCCCC)(CC3)CC4)(CC1)CC2.[Br-].[Br-].[Br-].[Br-]	10	10	0	9	10	12	25	< 1.6	50	25	12.5	100	50	MBC [14]: 50 µg/mL; MIC [14]: 12.5 µg/mL; MBC [15]: 25 µg/mL; MIC [15]: 6.3 µg/mL; MBC [16]: 6.3 µg/mL; MIC [16]: 6.3 µg/mL; MBC [17]: < 1.6 µg/mL; MIC [17]: < 1.6 µg/mL; MBC [18]: 12.5 µg/mL; MIC [18]: 6.3 µg/mL
